# ChEMBL document CHEMBL5291721, “A preclinical secondary pharmacology resource illuminates target-adverse drug reaction associations of marketed drugs” (Nat Commun, 2023)
# Columns and labels:
# [1] = molecular target: 3',5'-cyclic-AMP phosphodiesterase 4A (Homo sapiens, UniProt P27815); format: functional
# [2] = molecular target: T1, Adenosine receptor A3 (Homo sapiens, UniProt P0DMS8)
# T1 sequence (P0DMS8 whole entry): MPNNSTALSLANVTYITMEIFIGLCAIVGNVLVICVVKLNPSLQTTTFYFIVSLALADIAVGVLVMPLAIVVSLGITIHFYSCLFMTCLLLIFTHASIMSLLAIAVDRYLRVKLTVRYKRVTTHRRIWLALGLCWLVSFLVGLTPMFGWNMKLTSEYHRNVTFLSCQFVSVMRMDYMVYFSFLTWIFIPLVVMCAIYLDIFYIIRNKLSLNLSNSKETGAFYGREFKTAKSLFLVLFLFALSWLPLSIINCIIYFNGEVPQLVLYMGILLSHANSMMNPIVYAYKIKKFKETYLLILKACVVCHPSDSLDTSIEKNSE
# [3] = molecular target: cGMP-inhibited 3',5'-cyclic phosphodiesterase 3A (Homo sapiens, UniProt Q14432); format: functional
# [4] = molecular target: T2, Progesterone receptor (Homo sapiens, UniProt P06401)
# T2 sequence (P06401 whole entry): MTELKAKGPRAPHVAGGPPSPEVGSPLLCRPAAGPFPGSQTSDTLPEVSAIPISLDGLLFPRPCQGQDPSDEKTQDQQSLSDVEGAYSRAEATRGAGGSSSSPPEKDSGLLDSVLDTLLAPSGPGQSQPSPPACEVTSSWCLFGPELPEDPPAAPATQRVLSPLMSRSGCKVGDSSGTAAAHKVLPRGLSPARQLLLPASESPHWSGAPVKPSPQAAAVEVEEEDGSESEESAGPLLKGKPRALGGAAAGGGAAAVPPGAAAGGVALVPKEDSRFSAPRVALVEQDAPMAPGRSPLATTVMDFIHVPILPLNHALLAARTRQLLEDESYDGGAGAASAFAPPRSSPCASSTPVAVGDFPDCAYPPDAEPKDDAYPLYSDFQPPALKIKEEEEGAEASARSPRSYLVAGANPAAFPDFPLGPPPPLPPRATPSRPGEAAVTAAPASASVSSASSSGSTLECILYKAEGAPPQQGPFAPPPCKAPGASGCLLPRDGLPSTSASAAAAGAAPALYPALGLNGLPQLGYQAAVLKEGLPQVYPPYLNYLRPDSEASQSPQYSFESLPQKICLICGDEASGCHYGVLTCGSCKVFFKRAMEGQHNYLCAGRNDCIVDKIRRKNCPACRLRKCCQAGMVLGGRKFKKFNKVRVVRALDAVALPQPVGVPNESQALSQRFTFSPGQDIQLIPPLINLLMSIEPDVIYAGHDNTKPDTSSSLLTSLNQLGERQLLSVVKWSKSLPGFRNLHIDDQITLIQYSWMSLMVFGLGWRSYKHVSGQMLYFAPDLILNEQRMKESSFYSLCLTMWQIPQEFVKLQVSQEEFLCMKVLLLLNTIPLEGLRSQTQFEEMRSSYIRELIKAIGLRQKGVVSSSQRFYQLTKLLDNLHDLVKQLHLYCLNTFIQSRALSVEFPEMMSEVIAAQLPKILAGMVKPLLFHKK
# [5] = molecular target: 5-hydroxytryptamine receptor 2B (Homo sapiens, UniProt P41595); format: functional, cell-based
# [6] = molecular target: T3, 5-hydroxytryptamine receptor 1A (Homo sapiens, UniProt P08908)
# T3 sequence (P08908 whole entry): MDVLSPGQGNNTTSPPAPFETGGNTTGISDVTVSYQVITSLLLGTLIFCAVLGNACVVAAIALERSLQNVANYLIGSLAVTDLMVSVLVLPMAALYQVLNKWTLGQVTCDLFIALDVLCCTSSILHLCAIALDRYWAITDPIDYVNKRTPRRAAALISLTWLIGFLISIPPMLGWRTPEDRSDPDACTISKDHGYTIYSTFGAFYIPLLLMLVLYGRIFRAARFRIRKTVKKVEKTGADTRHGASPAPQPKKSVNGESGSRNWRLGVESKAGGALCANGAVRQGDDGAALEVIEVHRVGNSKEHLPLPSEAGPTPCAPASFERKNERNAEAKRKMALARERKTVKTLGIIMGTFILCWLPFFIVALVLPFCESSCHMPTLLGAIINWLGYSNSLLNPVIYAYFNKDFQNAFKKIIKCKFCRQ
# [7] = molecular target: Prothrombin (Homo sapiens, UniProt P00734); format: functional
# [8] = molecular target: Prostaglandin G/H synthase 1 (Homo sapiens, UniProt P23219); format: functional
# [9] = molecular target: T4, Alpha-2A adrenergic receptor (Homo sapiens, UniProt P08913)
# T4 sequence (P08913 whole entry): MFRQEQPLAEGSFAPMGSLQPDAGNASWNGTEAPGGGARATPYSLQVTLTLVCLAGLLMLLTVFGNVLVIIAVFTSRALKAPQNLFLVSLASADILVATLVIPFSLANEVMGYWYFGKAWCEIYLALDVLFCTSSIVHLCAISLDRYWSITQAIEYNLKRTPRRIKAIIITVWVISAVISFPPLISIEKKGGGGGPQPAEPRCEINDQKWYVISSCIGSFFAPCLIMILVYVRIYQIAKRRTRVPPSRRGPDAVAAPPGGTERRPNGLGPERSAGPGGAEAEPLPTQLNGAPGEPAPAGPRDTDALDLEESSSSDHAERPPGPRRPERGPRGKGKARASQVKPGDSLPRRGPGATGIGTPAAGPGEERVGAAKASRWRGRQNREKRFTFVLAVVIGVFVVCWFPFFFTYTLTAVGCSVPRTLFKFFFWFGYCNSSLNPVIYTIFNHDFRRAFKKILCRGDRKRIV
# [10] = molecular target: Histamine H3 receptor (Homo sapiens, UniProt Q9Y5N1)
# [11] = molecular target: T5, Muscarinic acetylcholine receptor M2 (Homo sapiens, UniProt P08172)
# T5 sequence (P08172 whole entry): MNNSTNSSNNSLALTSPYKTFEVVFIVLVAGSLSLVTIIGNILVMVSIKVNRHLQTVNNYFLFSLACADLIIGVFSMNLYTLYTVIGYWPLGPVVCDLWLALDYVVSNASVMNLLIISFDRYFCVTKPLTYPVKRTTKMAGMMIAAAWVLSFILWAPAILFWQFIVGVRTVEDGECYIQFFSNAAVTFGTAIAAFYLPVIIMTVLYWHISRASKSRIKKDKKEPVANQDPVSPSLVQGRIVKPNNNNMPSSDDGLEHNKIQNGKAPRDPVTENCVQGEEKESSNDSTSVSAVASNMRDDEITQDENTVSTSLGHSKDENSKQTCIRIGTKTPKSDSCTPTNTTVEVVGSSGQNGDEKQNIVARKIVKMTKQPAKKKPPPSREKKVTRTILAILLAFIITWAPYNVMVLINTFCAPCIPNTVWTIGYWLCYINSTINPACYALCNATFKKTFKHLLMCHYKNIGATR
# Note: assay procedure not described here.
# Chain of 5-hydroxytryptamine receptor 2B (P41595 whole entry): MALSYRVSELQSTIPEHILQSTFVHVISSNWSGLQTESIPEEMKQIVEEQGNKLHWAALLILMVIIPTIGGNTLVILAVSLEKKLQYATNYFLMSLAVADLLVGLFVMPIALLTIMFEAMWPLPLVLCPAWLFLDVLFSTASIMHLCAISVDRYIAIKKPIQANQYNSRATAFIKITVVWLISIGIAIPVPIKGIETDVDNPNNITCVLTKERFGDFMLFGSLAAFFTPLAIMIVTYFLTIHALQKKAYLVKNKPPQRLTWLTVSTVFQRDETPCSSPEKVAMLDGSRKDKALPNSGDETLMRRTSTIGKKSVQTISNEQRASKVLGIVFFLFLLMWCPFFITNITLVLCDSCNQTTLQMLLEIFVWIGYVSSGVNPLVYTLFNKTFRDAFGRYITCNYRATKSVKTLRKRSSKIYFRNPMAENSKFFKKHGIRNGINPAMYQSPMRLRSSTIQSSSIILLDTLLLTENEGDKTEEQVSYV
# Chain of Histamine H3 receptor (Q9Y5N1 whole entry): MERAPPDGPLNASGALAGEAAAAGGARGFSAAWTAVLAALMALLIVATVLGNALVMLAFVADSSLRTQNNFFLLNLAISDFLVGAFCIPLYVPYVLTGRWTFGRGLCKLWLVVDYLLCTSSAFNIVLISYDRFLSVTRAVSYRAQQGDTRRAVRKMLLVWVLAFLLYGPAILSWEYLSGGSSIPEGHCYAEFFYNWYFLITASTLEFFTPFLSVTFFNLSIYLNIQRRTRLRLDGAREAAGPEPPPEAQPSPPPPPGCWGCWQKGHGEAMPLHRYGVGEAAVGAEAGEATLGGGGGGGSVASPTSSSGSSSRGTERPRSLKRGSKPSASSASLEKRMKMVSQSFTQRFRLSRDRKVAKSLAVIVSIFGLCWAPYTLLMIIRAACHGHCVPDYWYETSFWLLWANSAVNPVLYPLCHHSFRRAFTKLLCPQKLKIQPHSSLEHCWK
# Chain of Prostaglandin G/H synthase 1 (P23219 whole entry): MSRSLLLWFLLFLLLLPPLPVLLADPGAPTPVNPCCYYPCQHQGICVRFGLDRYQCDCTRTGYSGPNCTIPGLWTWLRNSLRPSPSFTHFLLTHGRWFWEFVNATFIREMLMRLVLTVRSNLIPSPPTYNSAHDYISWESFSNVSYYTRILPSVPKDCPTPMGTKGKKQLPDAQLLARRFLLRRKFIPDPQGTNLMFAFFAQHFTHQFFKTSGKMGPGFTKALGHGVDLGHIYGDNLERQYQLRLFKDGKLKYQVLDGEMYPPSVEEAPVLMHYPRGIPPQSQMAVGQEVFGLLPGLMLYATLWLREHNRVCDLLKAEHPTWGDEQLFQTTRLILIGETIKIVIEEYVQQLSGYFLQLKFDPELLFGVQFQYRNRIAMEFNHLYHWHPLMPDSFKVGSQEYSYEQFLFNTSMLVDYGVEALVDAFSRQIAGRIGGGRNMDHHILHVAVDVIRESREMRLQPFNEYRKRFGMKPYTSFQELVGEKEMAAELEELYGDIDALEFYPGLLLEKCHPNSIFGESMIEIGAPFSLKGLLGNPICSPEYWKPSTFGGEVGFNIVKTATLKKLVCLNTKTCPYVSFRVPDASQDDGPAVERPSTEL
# Chain of 3',5'-cyclic-AMP phosphodiesterase 4A (P27815 whole entry): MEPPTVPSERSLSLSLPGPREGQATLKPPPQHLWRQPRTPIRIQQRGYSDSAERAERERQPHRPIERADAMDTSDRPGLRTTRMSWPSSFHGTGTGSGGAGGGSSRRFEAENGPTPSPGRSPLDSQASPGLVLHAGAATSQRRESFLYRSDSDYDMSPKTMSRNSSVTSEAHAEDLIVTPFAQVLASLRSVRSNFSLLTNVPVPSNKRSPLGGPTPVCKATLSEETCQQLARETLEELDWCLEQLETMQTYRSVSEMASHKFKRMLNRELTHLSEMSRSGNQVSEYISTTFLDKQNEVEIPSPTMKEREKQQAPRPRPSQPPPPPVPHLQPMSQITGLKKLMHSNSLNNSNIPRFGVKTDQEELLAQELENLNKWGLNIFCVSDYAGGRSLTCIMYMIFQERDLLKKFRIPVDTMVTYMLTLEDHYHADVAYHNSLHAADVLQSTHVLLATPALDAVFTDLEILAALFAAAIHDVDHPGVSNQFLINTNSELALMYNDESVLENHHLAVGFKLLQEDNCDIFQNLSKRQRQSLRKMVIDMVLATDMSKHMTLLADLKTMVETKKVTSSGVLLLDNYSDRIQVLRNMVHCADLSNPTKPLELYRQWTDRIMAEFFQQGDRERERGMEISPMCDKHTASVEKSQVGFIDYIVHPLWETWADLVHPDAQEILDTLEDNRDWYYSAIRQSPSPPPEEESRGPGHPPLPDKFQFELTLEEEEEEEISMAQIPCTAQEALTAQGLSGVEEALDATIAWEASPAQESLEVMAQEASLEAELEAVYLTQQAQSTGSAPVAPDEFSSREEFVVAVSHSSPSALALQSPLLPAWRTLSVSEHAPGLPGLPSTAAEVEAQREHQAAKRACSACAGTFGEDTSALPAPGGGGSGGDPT
# Chain of cGMP-inhibited 3',5'-cyclic phosphodiesterase 3A (Q14432 whole entry): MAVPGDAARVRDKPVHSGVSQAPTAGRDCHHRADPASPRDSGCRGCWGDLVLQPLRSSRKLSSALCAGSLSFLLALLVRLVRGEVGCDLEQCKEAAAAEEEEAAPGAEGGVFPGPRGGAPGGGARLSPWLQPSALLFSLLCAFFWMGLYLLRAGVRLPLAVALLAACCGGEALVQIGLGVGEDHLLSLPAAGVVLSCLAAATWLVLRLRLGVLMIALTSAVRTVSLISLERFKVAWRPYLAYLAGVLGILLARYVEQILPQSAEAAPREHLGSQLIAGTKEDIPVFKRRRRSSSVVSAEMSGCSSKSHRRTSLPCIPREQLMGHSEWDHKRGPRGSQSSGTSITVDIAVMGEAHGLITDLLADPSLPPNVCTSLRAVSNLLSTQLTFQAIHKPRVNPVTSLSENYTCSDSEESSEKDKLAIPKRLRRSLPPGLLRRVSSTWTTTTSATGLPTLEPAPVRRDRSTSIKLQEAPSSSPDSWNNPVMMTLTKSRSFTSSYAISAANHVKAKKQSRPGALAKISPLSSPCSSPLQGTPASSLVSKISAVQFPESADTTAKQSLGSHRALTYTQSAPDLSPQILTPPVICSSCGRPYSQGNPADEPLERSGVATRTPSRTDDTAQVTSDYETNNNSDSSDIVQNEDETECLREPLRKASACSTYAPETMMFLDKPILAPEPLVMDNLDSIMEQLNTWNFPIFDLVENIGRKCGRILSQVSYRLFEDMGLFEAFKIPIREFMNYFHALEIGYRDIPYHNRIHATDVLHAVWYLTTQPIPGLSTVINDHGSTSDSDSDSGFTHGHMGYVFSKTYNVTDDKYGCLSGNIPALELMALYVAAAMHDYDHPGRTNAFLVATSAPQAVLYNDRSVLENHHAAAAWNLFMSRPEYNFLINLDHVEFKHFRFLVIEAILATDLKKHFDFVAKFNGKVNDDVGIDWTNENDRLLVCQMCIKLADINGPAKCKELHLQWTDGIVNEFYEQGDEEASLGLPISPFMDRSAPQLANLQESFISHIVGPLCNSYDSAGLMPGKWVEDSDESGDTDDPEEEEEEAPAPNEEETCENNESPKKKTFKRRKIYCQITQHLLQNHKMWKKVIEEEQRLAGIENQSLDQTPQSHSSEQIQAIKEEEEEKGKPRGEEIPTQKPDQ
Compound,AC50 [1] [µM],AC50 [2] [µM],AC50 [3] [µM],AC50 [4] [µM],AC50 [5] [µM],AC50 [6] [µM],AC50 [7] [µM],AC50 [8] [µM],AC50 [9] [µM],AC50 [10] [µM],AC50 [11] [µM]
CCCC[N+]1(C)[C@@H]2C[C@@H](OC(=O)[C@H](CO)c3ccccc3)C[C@H]1[C@@H]1O[C@@H]12 (stereo partly drawn) [BUTYLSCOPOLAMINE],> 30,> 30,> 30,> 30,> 30,> 30,> 30,> 30,> 30,> 30,–
C1N2CN3CN1CN(C2)C3 [METHENAMINE],> 30,> 30,> 30,> 30,> 30,> 30,> 30,> 30,> 30,> 30,> 30
CN1CCC2=C(C1)c1ccccc1Cc1ccccc12 [SETIPTILINE],> 30,> 30,> 30,> 30,> 30,0.154,> 30,> 30,0.0996,> 30,0.855
CC(C)Cc1ccc(C(C)C(=O)NO)cc1 (stereo not drawn) [IBUPROXAM],24.2,> 30,> 30,> 30,> 30,> 30,> 30,–,> 30,> 30,> 30
COc1ccc2c(c1)OC(C)(C)C(c1ccccc1)C2c1ccc(OCCN2CCCC2)cc1 (stereo not drawn) [ORMELOXIFENE],> 30,3.66,> 30,3.57,> 30,9.91,> 30,4.3,10.6,0.785,9.13
NS(=O)(=O)c1cc2c(cc1Cl)NC(C1CC3C=CC1C3)NS2(=O)=O (stereo not drawn) [CYCLOTHIAZIDE],> 30,> 30,> 30,> 30,> 30,> 30,> 30,> 30,> 30,> 30,> 30
COc1ccc(CCC(C)NCC(O)c2ccc(O)c([S+](C)[O-])c2)cc1 (stereo not drawn) [SULFINALOL],> 30,> 30,> 30,> 30,> 30,0.326,> 30,> 30,> 30,> 30,> 30
CCC(Cc1c(I)cc(I)c(N)c1I)C(=O)O (stereo not drawn) [IOPANOIC ACID],12.2,> 30,> 30,> 30,> 30,> 30,> 30,> 30,> 30,> 30,> 30
CC1=NN(c2ccccc2)C(=O)C1 [EDARAVONE],> 30,> 30,> 30,> 30,> 30,> 30,> 30,12.5,> 30,> 30,26.5
CCC1(c2cccc(O)c2)CCCCN(C)C1 (stereo not drawn) [MEPTAZINOL],> 30,> 30,> 30,> 30,> 30,> 30,> 30,> 3,> 30,> 30,20.9
CCCC1C(=O)N2C(N(C)C)=Nc3ccc(C)cc3N2C1=O (stereo not drawn) [APAZONE],> 30,3.84,> 30,> 30,> 30,> 30,> 30,6.16,> 30,> 30,> 30
Nc1nc(-n2cc(C(=O)O)c(=O)c3cc(F)c(N4CC(O)C4)c(Cl)c32)c(F)cc1F [DELAFLOXACIN],> 30,> 3,> 30,> 30,> 30,> 30,> 30,> 30,> 30,> 30,> 30
O=C(c1ccc(F)c(F)c1Nc1ccc(I)cc1F)N1CC(O)([C@@H]2CCCCN2)C1 [COBIMETINIB],> 30,> 30,> 30,> 30,> 30,> 30,> 30,> 30,> 30,> 30,13.8
O=C1NCC2(CCN(CCc3ccccc3)CC2)O1 [FENSPIRIDE],> 30,> 30,> 30,> 30,> 30,> 30,> 30,> 30,8.2,> 30,16.4
Nc1nc2c(ncn2CCC(CO)CO)c(=O)[nH]1 [PENCICLOVIR],> 30,> 30,> 30,> 30,> 30,> 30,> 30,> 30,> 30,> 30,> 30
COc1cc2c(cc1OC)[C@H]1C[C@@H](OC(=O)[C@@H](N)C(C)C)[C@H](CC(C)C)CN1CC2 [VALBENAZINE],> 30,> 30,> 30,> 30,> 30,–,> 30,24.1,> 30,> 30,> 30
